{"source": "patent US8129121B2", "about": "“Regulation of lipid droplet formation by modulation of FIT1 and FIT2 and uses thereof” (Albert Einstein College of Medicine of Yeshiva University, priority 2007, dated 2012)", "key": {"NIH-3T3 L1 adipocytes": {"test_system": "NIH-3T3 L1 adipocytes", "test": "Lentivirus shRNA knockdown of FIT2 in NIH-3T3 L1 cells during adipogenesis: lipid droplets, differentiation markers, TG biosynthesis, lipolysis", "type": "cell-based, mouse", "text": "(§1) FIG. 4A-4C. shRNAi mediated knockdown of FIT2. NIH-3T3 or RAW246.7 cells were infected with lentivirus expressing shRNA sequence targeting murine FIT2 (FIT2shRNA), or control shRNA (contshRNA), or no lentivirus (control). (A) FIT2shRNA reduced lipid droplet formation during NIH-3T3 cell differentiation (days of differentiation are shown above image) as visualized by BODIPY493/503 staining. […] Expression of differentiation markers Apt and PPARgamma, were not changed in FIT2shRNA treated cells compared to controls.\nFIG. 11A-11B. Triglyceride biosynthesis and lipolysis assays in FIT2 knockdown cells. (A) Triglyceride synthesis measurements were performed at each time point during differentiation using ^14C glycerol and TLC analysis of triglyceride levels quantified by PhosphorImager analysis. Each time point contained 3 independent samples for each condition, and represented as mean±std, p<0.001. […] (B) Lipolysis assays performed on cell lysates from NIH 3T3-L1 cells at day 4 and day 6 of differentiation. No differences were observed between control and shRNAcont and FIT2shRNA adipocytes.\nCell culture. HEK293, and HeLa cells were grown in DMEM 10% FBS. NIH-3T3 L1 adipocytes were a kind gift from Philip Scherer and grow and differentiated by standard methods (24).\nTriglyceride biosynthesis and DGAT assays. Cells in culture were incubated with 7.5 μCi/mL of 14C-glycerol (Specific activity: 125-180 mCi/mmol, NEN-Amersham) for the indicated times, followed by extraction with HIP and separation by TLC as referenced above. Radioactive triglycerides were quantified using PhosphorImager analysis and represented as a rate of triglyceride production using arbitrary units obtained from PhosphorImager analysis.\nLipase activity assay. Total cellular lipase activity was measured using the established method of Holm and Osterlund in Methods in Molecular Biology 1999; 109, p 109-121.\n(§2) Double stranded shRNA DNAs were used to generate lentiviruses using the U6 promoter driven BLOCK-iT Lentivirus RNAi expression system (Invitrogen Corporation). Knockdown of human FIT2 in HEK293 cells was performed by stably transfection using pEntryU6 vector (Invitrogen Corp). NIH-3T3 L1 pre-adipocytes and HepG2 cells were infected with an MOI of 10-50.\n(§3) shRNA suppression of FIT2 abolishes lipid droplet formation during adipogenesis. To provide a direct test if FIT proteins are essential for the formation of lipid droplets, knockdown of FIT expression was sought in established cellular models of lipid droplet formation. […]"}, "FIT2": {"test_system": "FIT2", "test": "Lentivirus shRNA knockdown of FIT2 in NIH-3T3 L1 cells, FIT2 mRNA and protein", "type": "cell-based, mouse", "details": "adipocytes infected with lentivirus, vs control shRNA or no virus", "text": "as §1\nLentivirus shRNA. The following short hairpin RNA (shRNA) sequences (sense strand shown) were used to knockdown mouse FIT2 expression: shRNAcont, […] (SEQ ID NO:20); shRNAFIT2, (SEQ ID NO:21) […].\nas §2, §3"}}}
{"substance": "FIT2 shRNA: lentivirus-expressed short hairpin RNA targeting murine FIT2, SEQ ID NO:21 (CACCGCACCATGTTTGGTTTGTTGGCGAACCAACAAACCAAACATGGTGC)", "values": [{"measurement": "Triglyceride biosynthesis", "setting": "NIH-3T3 L1 adipocytes; 14C glycerol, TLC, knockdown adipocytes compared to controls", "value": "similar"}, {"measurement": "lipid droplets", "setting": "NIH-3T3 L1 adipocytes; BODIPY493/503 staining, pre-adipocytes (day 0) and mature adipocytes (day 4 to 9)", "value": "almost complete absence of lipid droplets"}, {"measurement": "expression of PPARgamma and AP2 (markers of adipocyte differentiation)", "setting": "NIH-3T3 L1 adipocytes; FIT2 suppressed cells, Northern blot", "value": "not changed"}, {"measurement": "triglyceride lipase activities", "setting": "NIH-3T3 L1 adipocytes; cell lysates at day 4 and day 6 of differentiation, compared to controls", "value": "similar"}, {"measurement": "FIT2 mRNA", "setting": "FIT2; Northern blot", "value": "significantly suppressed"}, {"measurement": "FIT2 protein", "setting": "FIT2; Western blot", "value": "significantly suppressed"}]}
